The test system of this experiment is ZIKV. Briefly: microbe, parasite or virus in culture. Conditions: 48 hrs. The class given is cell-based, Zika virus.

The EC50 is the concentration giving half of the maximal effect. The compound `COC(=O)N[C@H](C(=O)N1[C@@H](C)CC[C@H]1c1nc(Cl)c(-c2ccc3c(c2)COc2cc4c(ccc5nc([C@@H]6CC[C@H](C)N6C(=O)[C@@H](NC(=O)OC)C(C)C)[nH]c54)cc2-3)[nH]1)C(C)C` [Compound 21, methyl ((S)-1-((2S,5S)-2-(4-chloro-5-(2-((2S,5S)-1-((methoxycarbonyl)-L-valyl)-5-methylpyrrolidin-2-yl)-1,11-dihydroisochromeno[4′,3′:6,7]naphtho[1,2-d]imidazol-9-yl)-1H-imidazol-2-yl)-5-methylpyrrolidin-1-yl)-3-methyl-1-oxobutan-2-yl)carbamate] had an EC50 (Zika virus, Huh-7) of 18.9 nM.

Under “Zika virus, Huh-7”, `COC[C@H]1C[C@@H](c2nc(Cl)c(-c3ccc4c(c3)COc3cc5c(ccc6nc([C@@H]7CC[C@H](C)N7C(=O)[C@@H](NC(=O)OC)C(C)C)[nH]c65)cc3-4)[nH]2)N(C(=O)[C@@H](NC(=O)OC)[C@@H](C)OC)C1` [Compound 5, methyl ((S)-1-((2S,5S)-2-(9-(4-chloro-2-((2S,4S)-1-(N-(methoxycarbonyl)-O-methyl-L-threonyl)-4-(methoxymethyl)pyrrolidin-2-yl)-1H-imidazol-5-yl)-1,11-dihydroisochromeno[4′,3′:6,7]naphtho[1,2-d]imidazol-2-yl)-5-methylpyrrolidin-1-yl)-3-methyl-1-oxobutan-2-yl)carbamate] yielded an EC50 of 124 nM. “methyl ((S)-1-((2S,5S)-2-(5-(2-((2S,5S)-1-(O-(tert-butyl)-N-(methoxycarbonyl)-L-threonyl)-5-methylpyrrolidin-2-yl)-1,11-dihydroisochromeno[4′,3′:6,7]naphtho[1,2-d]imidazol-9-yl)-4-chloro-1H-imidazol-2-yl)-5-methylpyrrolidin-1-yl)-3-methyl-1-oxobutan-2-yl)carbamate [Compound 1]” gave an EC50 of 24.9 nM.

For `CC[C@H](C)[C@H](NC(=O)OC)C(=O)N1C[C@@H](COC)C[C@H]1c1nc(Cl)c(-c2ccc3c(c2)COc2cc4c(ccc5nc([C@@H]6CC[C@H](C)N6C(=O)[C@@H](NC(=O)OC)C(C)C)[nH]c54)cc2-3)[nH]1` [Compound 14, methyl ((S)-1-((2S,5S)-2-(9-(4-chloro-2-((2S,4S)-1-((methoxycarbonyl)-L-isoleucyl)-4-(methoxymethyl)pyrrolidin-2-yl)-1H-imidazol-5-yl)-1,11-dihydroisochromeno[4′,3′:6,7]naphtho[1,2-d]imidazol-2-yl)-5-methylpyrrolidin-1-yl)-3-methyl-1-oxobutan-2-yl)carbamate], where the note is “Zika virus, Huh-7”, the EC50 was found to be 9.7 nM. Regarding `COC(=O)N[C@H](C(=O)N1[C@@H](C)CC[C@H]1c1nc(C2CC2)c(-c2ccc3c(c2)COc2cc4c(ccc5nc([C@@H]6CC[C@H](C)N6C(=O)[C@@H](NC(=O)OC)C(C)C)[nH]c54)cc2-3)[nH]1)C(C)C` [Compound 38, methyl ((S)-1-((2S,5S)-2-(4-cyclopropyl-5-(2-((2S,5S)-1-((methoxycarbonyl)-L-valyl)-5-methylpyrrolidin-2-yl)-1,11-dihydroisochromeno[4′,3′:6,7]naphtho[1,2-d]imidazol-9-yl)-1H-imidazol-2-yl)-5-methylpyrrolidin-1-yl)-3-methyl-1-oxobutan-2-yl)carbamate], under “Zika virus, Huh-7”, the EC50 amounted to 25.9 nM. In the case of `COC(=O)N[C@H](C(=O)N1CCC[C@H]1c1nc(Cl)c(-c2ccc3c(c2)COc2cc4c(ccc5nc([C@@H]6CCCN6C(=O)[C@@H](NC(=O)OC)C(C)(C)C(F)(F)F)[nH]c54)cc2-3)[nH]1)C(C)(C)C(F)(F)F` [Compound 29, methyl ((S)-1-((S)-2-(4-chloro-5-(2-((S)-1-((S)-4,4,4-trifluoro-2-((methoxycarbonyl)amino)-3,3-dimethylbutanoyl)pyrrolidin-2-yl)-1,11-dihydroisochromeno[4′,3′:6,7]naphtho[1,2-d]imidazol-9-yl)-1H-imidazol-2-yl)pyrrolidin-l-yl)-4,4,4-trifluoro-3,3-dimethyl-1-oxobutan-2-yl)carbamate], the EC50 is 11.4 nM. For the setting “Zika virus, Huh-7”, `COC(=O)N[C@H](C(=O)N1CCC[C@H]1c1nc(Cl)c(-c2ccc3c(c2)COc2cc4c(ccc5nc([C@@H]6CCCN6C(=O)[C@@H](NC(=O)OC)C(C)C)[nH]c54)cc2-3)[nH]1)C(C)C` [Compound 26, methyl ((S)-1-((S)-2-(4-chloro-5-(2-((S)-1-((methoxycarbonyl)-L-valyl)pyrrolidin-2-yl)-1,11-dihydroisochromeno[4′,3′:6,7]naphtho[1,2-d]imidazol-9-yl)-1H-imidazol-2-yl)pyrrolidin-1-yl)-3-methyl-1-oxobutan-2-yl)carbamate] yielded an EC50 of 85.4 nM.

In turn, `CC[C@H](C)[C@H](NC(=O)OC)C(=O)N1[C@@H](C)CC[C@H]1c1nc(Cl)c(-c2ccc3c(c2)COc2cc4c(ccc5nc([C@@H]6CC[C@H](C)N6C(=O)[C@@H](NC(=O)OC)C6CCOCC6)[nH]c54)cc2-3)[nH]1` [Compound 15, methyl ((S)-2-((2S,5S)-2-(9-(4-chloro-2-((2S,5S)-1-((methoxycarbonyl)-L-isoleucyl)-5-methylpyrrolidin-2-yl)-1H-imidazol-5-yl)-1,11-dihydroisochromeno[4′,3′:6,7]naphtho[1,2-d]imidazol-2-yl)-5-methylpyrrolidin-1-yl)-2-oxo-1-(tetrahydro-2H-pyran-4-yl)ethyl)carbamate] came in with an EC50 (Zika virus, Huh-7) of 7.7 nM.

Compound `COC(=O)N[C@H](C(=O)N1[C@@H](C)CC[C@H]1c1nc(C(C)C)c(-c2ccc3c(c2)COc2cc4c(ccc5nc([C@@H]6CC[C@H](C)N6C(=O)[C@@H](NC(=O)OC)C(C)C)[nH]c54)cc2-3)[nH]1)C(C)C` [Compound 43, methyl ((S)-1-((2S,5S)-2-(4-isopropyl-5-(2-((2S,5S)-1-((methoxycarbonyl)-L-valyl)-5-methylpyrrolidin-2-yl)-1,11-dihydroisochromeno[4′,3′:6,7]naphtho[1,2-d]imidazol-9-yl)-1H-imidazol-2-yl)-5-methylpyrrolidin-1-yl)-3-methyl-1-oxobutan-2-yl)carbamate] displayed a half-maximal effective concentration (EC50) (Zika virus, Huh-7) of 57.7 nM. For `COC(=O)N[C@H](C(=O)N1CC2(CC2)C[C@H]1c1nc(Cl)c(-c2ccc3c(c2)COc2cc4c(ccc5nc([C@@H]6CC7(CC7)CN6C(=O)[C@@H](NC(=O)OC)C(C)C)[nH]c54)cc2-3)[nH]1)C(C)C` [Compound 2, methyl ((S)-1-((S)-6-(4-chloro-5-(2-((S)-5-((methoxycarbonyl)-L-valyl)-5-azaspiro[2.4]heptan-6-yl)-1,11-dihydroisochromeno[4′,3′:6,7]naphtho[1,2-d]imidazol-9-yl)-1H-imidazol-2-yl)-5-azaspiro[2.4]heptan-5-yl)-3-methyl-1-oxobutan-2-yl)carbamate], where the note is “Zika virus, Huh-7”, the EC50 worked out at 50.5 nM. The compound `COC(=O)N[C@H](C(=O)N1[C@@H](C)CC[C@H]1c1nc(Br)c(-c2ccc3c(c2)COc2cc4c(ccc5nc([C@@H]6CC[C@H](C)N6C(=O)[C@@H](NC(=O)OC)C(C)C)[nH]c54)cc2-3)[nH]1)C(C)C` [Compound 31, methyl ((S)-1-((2S,5S)-2-(4-bromo-5-(2-((2S,5S)-1-((methoxycarbonyl)-L-valyl)-5-methylpyrrolidin-2-yl)-1,11-dihydroisochromeno[4′,3′:6,7]naphtho[1,2-d]imidazol-9-yl)-1H-imidazol-2-yl)-5-methylpyrrolidin-1-yl)-3-methyl-1-oxobutan-2-yl)carbamate] registered an EC50 (Zika virus, Huh-7) of 8.5 nM. Compound `CC[C@H]1CC[C@@H](c2nc3ccc4cc5c(cc4c3[nH]2)OCc2cc(-c3[nH]c([C@@H]4CC[C@H](C)N4C(=O)[C@@H](NC(=O)OC)C(C)C)nc3Cl)ccc2-5)N1C(=O)[C@@H](NC(=O)OC)C1CCOCC1` [Compound 12, methyl ((S)-2-((2S,5S)-2-(9-(4-chloro-2-((2S,5S)-1-((methoxycarbonyl)-L-valyl)-5-methylpyrrolidin-2-yl)-1H-imidazol-5-yl)-1,11-dihydroisochromeno[4′,3′:6,7]naphtho[1,2-d]imidazol-2-yl)-5-ethylpyrrolidin-1-yl)-2-oxo-1-(tetrahydro-2H-pyran-4-yl)ethyl)carbamate] returned an EC50 (Zika virus, Huh-7) of 12.1 nM. Still for that read-out and setting: the figure for `CC[C@@H](C)[C@H](NC(=O)OC)C(=O)N1[C@@H](C)CC[C@H]1c1nc(C2CC2)c(-c2ccc3c(c2)COc2cc4c(ccc5nc([C@@H]6CC[C@H](C)N6C(=O)[C@@H](NC(=O)OC)[C@H](C)CC)[nH]c54)cc2-3)[nH]1` [Compound 40, methyl ((2S,3R)-1-((2S,5S)-2-(4-cyclopropyl-5-(2-((2S,5S)-1-((methoxycarbonyl)-L-alloisoleucyl)-5-methylpyrrolidin-2-yl)-1,11-dihydroisochromeno[4′,3′:6,7]naphtho[1,2-d]imidazol-9-yl)-1H-imidazol-2-yl)-5-methylpyrrolidin-1-yl)-3-methyl-1-oxopentan-2-yl)carbamate] is 25.1 nM.

The compound `CC[C@@H](C)[C@H](NC(=O)OC)C(=O)N1[C@@H](C)CC[C@H]1c1nc(Cl)c(-c2ccc3c(c2)COc2cc4c(ccc5nc([C@@H]6CC[C@H](C)N6C(=O)[C@@H](NC(=O)OC)[C@H](C)CC)[nH]c54)cc2-3)[nH]1` [Compound 25, methyl ((2S,3R)-1-((2S,5S)-2-(4-chloro-5-(2-((2S,5S)-1-((methoxycarbonyl)-L-alloisoleucyl)-5-methylpyrrolidin-2-yl)-1,11-dihydroisochromeno[4′,3′:6,7]naphtho[1,2-d]imidazol-9-yl)-1H-imidazol-2-yl)-5-methylpyrrolidin-1-yl)-3-methyl-1-oxopentan-2-yl)carbamate] gave an EC50 (Zika virus, Huh-7) of 8.3 nM. For the setting “Zika virus, Huh-7”, `CC[C@H](C)[C@H](NC(=O)OC)C(=O)N1C[C@@H](COC)C[C@H]1c1nc(Br)c(-c2ccc3c(c2)COc2cc4c(ccc5nc([C@@H]6CC[C@H](C)N6C(=O)[C@@H](NC(=O)OC)C(C)C)[nH]c54)cc2-3)[nH]1` [Compound 17, methyl ((S)-1-((2S,5S)-2-(9-(4-bromo-2-((2S,4S)-1-((methoxycarbonyl)-L-isoleucyl)-4-(methoxymethyl)pyrrolidin-2-yl)-1H-imidazol-5-yl)-1,11-dihydroisochromeno[4′,3′:6,7]naphtho[1,2-d]imidazol-2-yl)-5-methylpyrrolidin-1-yl)-3-methyl-1-oxobutan-2-yl)carbamate] had an EC50 of 15.6 nM.

Source of the values: patent US12037340B2, “Pentacyclic derivatives as Zika virus inhibitors” (Gilead Sciences, Inc., priority 2021, dated 2024).
